Experimental data published in patent publication US20140349314A1, “METHODS AND COMPOSITIONS FOR DETECTING AND TREATING INFLAMMATORY DISEASE” (Beth Israel Deaconess Medical Center, Inc., priority 2010, published 2014).
Where a SMILES comes first, the peptide text is derived from it. The star is where a group is joined. Cbz = O=C(OCc1ccccc1)*

Tests used:
[1] = tested on: human LX-2 hepatic stellate cells (HSC); experiment: Fibrosis-related transcript levels by quantitative RT-PCR in LX-2 HSC incubated with T cell-derived MP; type: cell-based; conditions: 24 hours
Protocol: Effect of S100 T Cell-MP on Fibrosis-Related Gene Expression by HSC Fibrosis related transcripts were measured from 200×10^3 serum-starved human LX-2 HSC 24 hours after addition of 1×10^3 or 50×10^3 S100-MP from Jurkat T cells using quantitative RT-PCR. S10-MP, plain medium, and ST alone served as controls. MP were obtained from PHA-activated and/or apoptotic (ST-treated) Jurkat T cells. After T cell apoptosis induction, significant changes in fibrosis-related transcripts were found with 50×10^3 S100-MP, while equivalent amounts of S10-MP had no effect (FIG. 6). […] Similar results were obtained when S100-MP were incubated with freshly isolated primary rat HSC. Here the human S100-MP induced MMP-3 even 9-fold (FIG. 7).
For induction of apoptosis T cells were cultured in RPMI and treated with 4 μM/mL Staurosporine (ST, Cell Signaling Technology®, Danvers, Mass.) for 4 hours. […]
(§1) HSC (200×10^3/well) were seeded into six-well cell culture plates and serum-starved as above. […] Relative transcript levels were quantified by real-time RT-PCR on a LightCycler 1.5 instrument (Roche, Mannheim, Germany) using the TaqMan methodology as described previously (52). […] Experiments were performed in triplicates and values represent means±SD, being expressed as arbitrary units relative to the housekeeping gene beta2-microglobulin.

HSC [2] = experiment: Apoptosis assay (Annexin V / 7-AAD FACS) in HSC; type: cell-based, human
Protocol: It was reported earlier that MP derived from macrophages could trigger apoptosis in recipient cells.
24 hrs serum-starved HSC were incubated with S100-MP for 24 hrs. Apoptosis and necrosis induction by S100-MP were assessed by FACS analysis for Annexin V and 7-aminoactinomycin D staining (both from eBioscience™, San Diego, Calif., USA) on a LSR2 FACS analyzer with CELLQuest software (Becton Dickinson, San Jose, Calif.).

HSC [3] = experiment: MMP transcript levels in HSC after S100-MP with or without TNFα; type: cell-based, human
Protocol: FIG. 13C is a graph showing mRNA transcript levels of the indicated MMP gene in HSC after addition of S100-MP with or without TNFα (10 ng/mL) for 24 h (*p<0.05, **p=0.04, ***p=0.001).
It remained to be shown what cell membrane molecule(s) or receptor(s) mediate(s) attachment and uptake of S100-MP by HSC. […] Assuming that ICAM-1 on the recipient HSC is engaged by CD11a/CD18 on the S100-MP, any treatment of HSC that increases CD54 should enhance MP uptake and subsequent fibrolytic activation of HSC. We therefore incubated HSC with 10 ng/mL TNF-α, a strong inducer of CD54, which induced a robust (>10-fold) upregulation of CD54 after 24 hrs (FIG. 13B). This led to a further significant MP-induced increase (by 40%) of MMP-3 mRNA expression in the induced HSC as compared to untreated HSC (FIG. 13C). […] For MMP-3 the effect of combined TNF-α and MP treatment was overadditive as compared to the added effects of TNF-α or S100-MP alone (FIG. 13C).

CD54 (ICAM-1) on HSC = experiment: ICAM-1 (CD54) upregulation on HSC by TNFα (flow cytometry); type: cell-based, human
Protocol: TNFα (PEPROTECH®, Rocky Hill, N.J., USA) was added to HSC cultures, and ICAM-1 expression assessed after 2, 4 and 24 hrs by flow cytometric analysis using anti-ICAM-1-FITC (eBioscience™, San Diego, Calif., USA) on a LSR2 FACS analyzer as described above.

[4] = tested on: MP-stimulated MMP-3 mRNA expression in HSC; experiment: Signaling pathway inhibition: MP-stimulated MMP-3 mRNA expression in HSC; type: cell-based, human; conditions: for inhibition of MP-stimulated MMP-3 induction: vs untreated S100-MP stimulated controls, SB 5 μg/mL, MG 15 μg/mL
Protocol: In order to define major signaling pathways that lead to MMP-induction by S100-MP, we used specific inhibitors of several kinases. MP-stimulated MMP-3 mRNA expression served as fibrolytic read-out.
Pathway inhibition experiments were performed in 24 hour serum-starved HSC. […] The proteasome inhibitor MG132 (Rockland Inc., USA) was used to block NFκB nuclear translocation and activity.

[5] = tested on: TGFβ1 (5 ng/mL)-activated HSC; experiment: Fibrosis-related transcript levels in TGFβ1-activated HSC incubated with S100-MP; type: cell-based, human; conditions: 5 ng/mL TGFβ1
Protocol: FIG. 9 is a series of graphs showing mRNA transcript levels of the indicated gene in TGFβ1 (5 ng/mL)-activated HSC when incubated with the indicated amount of S100-MP for 24 hours. All experiments were performed at least twice with n=3-4 per group. Results (means±SD) are expressed as arbitrary units relative to beta2-microglobulin mRNA; *p<0.05 vs. medium control.
Human HSC were exposed to 5 ng/mL TGFβ1, which elicits a strong fibrogenic response. […] Thus TGFβ1 enhanced HSC procollagen α1(I) expression 2.7-fold, which after MP addition was reduced by almost 40%, and MP increased the expression of MMP-3 and MMP-13 almost 2.5- and 2.1-fold, respectively.
as §1, with “above. HSC were then incubated with 1×10^3 or 50×10^3 S10-MP or S100-MP for 24 hours, followed by total RNA extraction from cells using TRIzol (Invitrogen, Carlsbad, Calif.). One μg of RNA was reverse-transcribed using random primers and Superscript RNase H-reverse transcriptase (Invitrogen).” for “above.”

In the case of `CN[C@@H]1C[C@H]2O[C@@](C)([C@@H]1OC)n1c3ccccc3c3c4c(c5c6ccccc6n2c5c31)C(=O)NC4` [ST, staurosporine], the “effect on fibrosis-related gene expression (MMPs, TIMP-1, procollagen α1(I)) in HSC, in words” value [1] is reported as “induced only MMP-9”, the “apoptosis or necrosis induction in HSC, in words” value (HSC [2]; 24 hours of incubation, ST 0.04 μM/mL) is reported as “induced apoptosis” and the “late apoptosis of HSC” value (HSC [2]; 24 hours, ST alone) is reported as at most 10%. For the same molecule, the “necrosis of HSC” value (HSC [2]; 24 hours, ST alone) was “up to 14%” and the “higher percentage of late apoptotic HSC compared to S100-MP” value (HSC [2]; ST 0.04 μM/mL, 7-AAD/Annexin FACS) was 7 fold.

With TNF-α the “further MP-induced increase of MMP-3 mRNA in TNF-α-induced HSC as compared to untreated HSC” value (HSC [3]; TNF-α 10 ng/mL plus S100-MP, 24 h) was 40%, the “effect of TNF-α alone on HSC MMP-3 mRNA” value (HSC [3]; TNF-α alone) was “not capable to enhance” and the “effect of TNF-α alone on HSC MMP-9 and MMP-13 expression” value (HSC [3]; TNF-α alone) was “modestly induced”. The “effect of combined TNF-α and MP treatment on MMP-3 compared to added single effects” value (HSC [3]; TNF-α plus S100-MP) was “overadditive”, the “upregulation of CD54 on HSC” value (CD54 (ICAM-1) on HSC; 10 ng/mL TNF-α, after 24 hrs) was over 10 fold and the “upregulation of CD54 on HSC” value (CD54 (ICAM-1) on HSC; TNFα 10 ng/mL for 0, 4, and 24 hours) was 40%.

For `N#CC(=C(/N)Sc1ccccc1N)/C(C#N)=C(\N)Sc1ccccc1N` [U0126], the “effect on MP-stimulated MMP-3 mRNA, in words” value [4] was “Complete abrogation”.

`C[S+]([O-])c1ccc(-c2nc(-c3ccncc3)c(-c3ccc(F)cc3)[nH]2)cc1` (stereo not drawn) [SB203580] was tested, and the “inhibition of MP-stimulated MMP-3 induction” value [4] was 50%.

For `CC(C)C[C@@H](C=O)NC(=O)[C@H](CC(C)C)NC(=O)[C@H](CC(C)C)NC(=O)OCc1ccccc1` [MG132] (Cbz-Leu-Leu-Leu-aldehyde), the “inhibition of MP-stimulated MMP-3 induction” value [4] was 50%.

For “TGFβ1: profibrogenic cytokine used to activate HSC”, the “enhancement of HSC procollagen α1(I) expression” value [5] was 2.7 fold.
